# Results: patent publication US10251395B2, “Substituted furano-/thienocycloalkylamino-2-pyrimidine derivatives and use thereof for controlling undesired plant growth” (Bayer CropScience Aktiengesellschaft, priority 2015, dated 2019)
# Key:
# Format in all cases: in vivo
# [1] = tested on: Avena fatua; test: Pre-emergence herbicidal effect; conditions: Dosage 320 g/ha, scored visually after 3 weeks
# In short: (§1)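 Seeds sown in sandy loam in wood-fiber pots and covered with soil; WP or EC formulations applied to the soil surface as aqueous suspension or emulsion at 600 to 800 L/ha water with 0.2% wetting agent. Greenhouse, 3 weeks; damage scored visually versus untreated controls (100% = plants died, 0% = like control).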
# [2] = tested on: Amaranthus retroflexus; test: Pre-emergence herbicidal effect; conditions: scored visually after 3 weeks
# In short: as §1
# [3] = tested on: Alopecurus myosuroides; test: Pre-emergence herbicidal effect; conditions: scored visually after 3 weeks
# In short: as §1
# [4] = tested on: Stellaria media; test: Pre-emergence herbicidal effect; conditions: scored visually after 3 weeks
# In short: as §1
# [5] = tested on: Veronica persica; test: Pre-emergence herbicidal effect; conditions: scored visually after 3 weeks
# In short: as §1
# [6] = tested on: Polygonum convolvulus; test: Pre-emergence herbicidal effect; conditions: scored visually after 3 weeks
# In short: as §1
# [7] = tested on: Matricaria inodora; test: Pre-emergence herbicidal effect; conditions: scored visually after 3 weeks
# In short: as §1
# [8] = tested on: Setaria viridis; test: Pre-emergence herbicidal effect; conditions: scored visually after 3 weeks
# In short: as §1
# [9] = tested on: Viola tricolor; test: Pre-emergence herbicidal effect; conditions: scored visually after 3 weeks
# In short: as §1
# [10] = tested on: Amaranthus retroflexus; test: Post-emergence herbicidal effect; conditions: assessed visually after about 3 weeks vs untreated controls
# In short: (§2)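 Visual % damage vs untreated plants, ~3 wk after spraying (100% = dead, 0% = as control). Post-emergence foliar spray at one-leaf stage; WP/EC in water, 600–800 L/ha + 0.2% wetting agent; sandy loam, greenhouse.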
# [11] = tested on: Abutilon theophrasti; test: Post-emergence herbicidal effect; conditions: assessed visually after about 3 weeks vs untreated controls
# In short: as §2
# [12] = tested on: Stellaria media; test: Post-emergence herbicidal effect; conditions: assessed visually after about 3 weeks vs untreated controls
# In short: as §2
# [13] = tested on: Veronica persica; test: Post-emergence herbicidal effect; conditions: assessed visually after about 3 weeks vs untreated controls
# In short: as §2
# [14] = tested on: Polygonum convolvulus; test: Post-emergence herbicidal effect; conditions: 320 g/ha, assessed visually after about 3 weeks vs untreated controls
# In short: as §2
# [15] = tested on: Matricaria inodora; test: Post-emergence herbicidal effect; conditions: assessed visually after about 3 weeks vs untreated controls
# In short: as §2
# [16] = tested on: Ipomoea purpurea; test: Post-emergence herbicidal effect; conditions: assessed visually after about 3 weeks vs untreated controls
# In short: as §2
# [17] = tested on: Lolium multiflorum; test: Post-emergence herbicidal effect; conditions: assessed visually after about 3 weeks vs untreated controls
# In short: as §2
# [18] = tested on: Viola tricolor; test: Post-emergence herbicidal effect; conditions: assessed visually after about 3 weeks vs untreated controls
# In short: as §2
# [19] = tested on: Echinochloa crus-galli; test: Post-emergence herbicidal effect; conditions: 320 g/ha, assessed visually after about 3 weeks vs untreated controls
# In short: as §2
# [20] = tested on: Alopecurus myosuroides; test: Post-emergence herbicidal effect; conditions: 320 g/ha, assessed visually after about 3 weeks vs untreated controls
# In short: as §2
# [21] = tested on: Lolium multiflorum; test: Pre-emergence herbicidal effect; conditions: Dosage 320 g/ha, scored visually after 3 weeks
# In short: as §1
# [22] = tested on: Echinochloa crus-galli; test: Pre-emergence herbicidal effect; conditions: scored visually after 3 weeks
# In short: as §1
# [23] = tested on: Setaria viridis; test: Post-emergence herbicidal effect; conditions: assessed visually after about 3 weeks vs untreated controls
# In short: as §2
# [24] = tested on: Abutilon theophrasti; test: Pre-emergence herbicidal effect; conditions: Dosage 320 g/ha, scored visually after 3 weeks
# In short: as §1
SMILES,AVEFA pre-emergence efficacy (herbicidal activity) [1] [%],AMARE pre-emergence efficacy (herbicidal activity) ([2]; Dosage 80 g/ha) [%],AMARE pre-emergence efficacy (herbicidal activity) ([2]; Dosage 320 g/ha) [%],ALOMY pre-emergence efficacy (herbicidal activity) ([3]; Dosage 320 g/ha) [%],STEME pre-emergence efficacy (herbicidal activity) ([4]; Dosage 80 g/ha) [%],STEME pre-emergence efficacy (herbicidal activity) ([4]; Dosage 320 g/ha) [%],VERPE pre-emergence efficacy (herbicidal activity) ([5]; Dosage 320 g/ha) [%],POLCO pre-emergence efficacy (herbicidal activity) ([6]; Dosage 80 g/ha) [%],POLCO pre-emergence efficacy (herbicidal activity) ([6]; Dosage 320 g/ha) [%],MATIN pre-emergence efficacy (herbicidal activity) ([7]; Dosage 80 g/ha) [%],MATIN pre-emergence efficacy (herbicidal activity) ([7]; Dosage 320 g/ha) [%],SETVI pre-emergence efficacy (herbicidal activity) ([8]; Dosage 80 g/ha) [%],SETVI pre-emergence efficacy (herbicidal activity) ([8]; Dosage 320 g/ha) [%],VIOTR pre-emergence efficacy (herbicidal activity) ([9]; Dosage 80 g/ha) [%],VIOTR pre-emergence efficacy (herbicidal activity) ([9]; Dosage 320 g/ha) [%],post-emergence efficacy STEME ([12]; 80 g/ha) [%],post-emergence efficacy STEME ([12]; 320 g/ha) [%],post-emergence efficacy PHBPU ([16]; 320 g/ha) [%],post-emergence efficacy VIOTR ([18]; 320 g/ha) [%],post-emergence efficacy ECHCG [19] [%],other results
Cc1cc2c(s1)CCCC2Nc1ncc(SC(F)(F)F)c(C)n1 (racemic) [compound 80],60,100,100,70,100,100,100,100,100,70,90,100,100,90,100,100,100,100,100,70,VERPE pre-emergence efficacy (herbicidal activity) ([5]; Dosage 80 g/ha): 100%; post-emergence efficacy AMARE ([10]; 80 g/ha): 100%; post-emergence efficacy AMARE ([10]; 320 g/ha): 100%; post-emergence efficacy ABUTH ([11]; 80 g/ha): 80%; post-emergence efficacy ABUTH ([11]; 320 g/ha): 90%; post-emergence efficacy VERPE ([13]; 80 g/ha): 90%; post-emergence efficacy VERPE ([13]; 320 g/ha): 100%; post-emergence efficacy POLCO [14]: 60%; post-emergence efficacy MATIN ([15]; 80 g/ha): 70%; post-emergence efficacy MATIN ([15]; 320 g/ha): 90%; post-emergence efficacy PHBPU ([16]; 80 g/ha): 90%; post-emergence efficacy LOLMU ([17]; 80 g/ha): 70%; post-emergence efficacy LOLMU ([17]; 320 g/ha): 90%; post-emergence efficacy VIOTR ([18]; 80 g/ha): 100%
Cc1cc2c(s1)CCCC2Nc1nc(N)c(-c2cncc(Cl)c2)c(C(F)F)n1 (racemic) [compound 300],–,–,100,–,80,100,–,–,–,80,90,–,70,–,100,60,90,60,–,–,post-emergence efficacy AMARE ([10]; 320 g/ha): 90%; post-emergence efficacy ALOMY [20]: 70%
Nc1nc(NC2CCc3ccsc32)ncc1C(F)(F)F (racemic) [compound 29],100,60,100,100,100,100,90,–,–,100,100,90,100,100,100,90,100,–,90,100,LOLMU pre-emergence efficacy (herbicidal activity) [21]: 100%; ECHCG pre-emergence efficacy (herbicidal activity) ([22]; Dosage 320 g/ha): 100%; post-emergence efficacy POLCO [14]: 90%; post-emergence efficacy SETVI ([23]; 80 g/ha): 90%; post-emergence efficacy SETVI ([23]; 320 g/ha): 100%; post-emergence efficacy LOLMU ([17]; 320 g/ha): 80%; post-emergence efficacy VIOTR ([18]; 80 g/ha): 80%
Cc1cc2c(s1)CCCC2Nc1nc(N)c(Br)c(C(F)F)n1 (racemic) [compound 314],60,90,–,90,100,100,100,100,100,90,–,100,100,100,100,–,50,90,60,60,ABUTH pre-emergence efficacy (herbicidal activity) [24]: 60%; ALOMY pre-emergence efficacy (herbicidal activity) ([3]; Dosage 80 g/ha): 60%; ECHCG pre-emergence efficacy (herbicidal activity) ([22]; Dosage 80 g/ha): 70%; ECHCG pre-emergence efficacy (herbicidal activity) ([22]; Dosage 320 g/ha): 90%; post-emergence efficacy ABUTH ([11]; 320 g/ha): 70%; post-emergence efficacy SETVI ([23]; 320 g/ha): 60%
